Data as given in patent US20230338349A1, “LOW DOSE REGIMEN AND FORMULATION OF A 5-METHYL-1,2,4-OXADIAZOL-3-YL COMPOUND” (Eli Lilly and Company, priority 2020, published 2023).
Read-outs that look alike come from different tables or passages of the source.

Experiment: Single ascending dose study in healthy subjects, pharmacokinetics of compound of Formula I
Type: in vivo, human
Conditions: for concentration at 0.5 h / concentration at 1 h / concentration at 1.5 h / concentration at 2 h / concentration at 3 h / concentration at 4 h / concentration at 5 h / concentration at 6 h / concentration at 8 h / concentration at 12 h / concentration at 24 h / concentration at 48 h / Tmax / half-life / Cmax / CL renal / Vd/F: human, plasma; for concentration at 0.5 h / concentration at 1 h / concentration at 1.5 h / concentration at 2 h / concentration at 3 h / concentration at 4 h / concentration at 5 h / concentration at 6 h / concentration at 8 h / concentration at 12 h / concentration at 24 h / concentration at 48 h: mean; for Vd/F: read-out: Vz/F (apparent volume of distribution after oral administration)
Procedure: A Phase 1, single-center, subject- and investigator-blind, single-ascending dose, placebo-controlled, crossover, randomized study is performed to evaluate safety, tolerability, and pharmacokinetics (PK) of the compound of Formula I in healthy subjects. The study is conducted in 2 alternating cohorts (cohorts 1 and 2) in up to 3 study periods across 6 dose levels. Subjects are randomized to 1 of 3 treatment sequences in each cohort, with each sequence including 2 doses of compound of Formula I and 1 placebo dose over the 3 study periods in a complete crossover manner.
After an overnight fast of at least 8 hours, oral capsules are administered with approximately 240 mL of room-temperature water in the morning of each dosing day in a sitting position. Doses of 0.15 mg to 2 mg are administered as an oral solution of compound of Formula I via an oral dosing syringe with water similar to oral capsule dosing.
The capsules containing the compound of Formula I are prepared extemporaneously. Oral doses of 0.15 mg to 2 mg of the compound of Formula I are prepared extemporaneously as drug in solution. For any specific cohort/dosing period, the total number of capsules administered is the same for all subjects, regardless of whether assigned to placebo or the compound of Formula I. However, the number of capsules may vary between dosing periods and cohorts. This is similarly the case for extemporaneously prepared oral dosing solutions to maintain the blind. […] A matching volume of oral solution vehicle without compound of Formula I is used as placebo for the doses of 0.15 mg to 2 mg.
Venous blood samples of approximately 3 mL each are collected to determine the plasma concentrations of compound of Formula I. Concentrations of compound of Formula I are assayed using a validated liquid chromatography with tandem mass spectrometry method. PK parameter estimates for compound of Formula I are calculated using standard noncompartmental methods of analysis. Plasma concentrations of compound of Formula I are summarized by administered dose of compound of Formula I and the approximate time of PK blood sample collection. Following the procedure essentially as described above, PK data for a single ascending dose of the compound of Formula I in healthy subjects are set forth in Table 3 and Table 4.

[1] = single oral dose 0.6 mg, geometric mean (% CV)
[2] = single oral dose 2 mg, geometric mean (% CV)
[3] = single oral dose 5 mg, geometric mean (% CV)
[4] = single oral dose 10 mg, geometric mean (% CV)
[5] = single oral dose 16 mg, geometric mean (% CV)

With `CC(=O)Nc1nc(F)c(CN2CC[C@H](OCc3noc(C)n3)C[C@@H]2C)s1` [compound of Formula I, N-[4-fluoro-5-[[(2S,4S)-2-methyl-4-[(5-methyl-1,2,4-oxadiazol-3-yl)methoxy]-1-piperidyl]methyl]thiazol-2-yl]acetamide] the “AUC(0-∞) dose proportionality” value (0.6-mg to 16-mg dose range) was “increase approximately dose-proportionally”, the Cmax dose proportionality (0.6-mg to 16-mg dose range) was “increase approximately dose-proportionally” and the concentration at 0.5 h (single oral dose 0.15 mg) was 0.271 ng/mL. For the same compound, the concentration at 1 h (single oral dose 0.15 mg) was 0.278 ng/mL, the concentration at 1.5 h (single oral dose 0.15 mg) was 0.246 ng/mL and the concentration at 2 h (single oral dose 0.15 mg) was 0.179 ng/mL. The concentration at 3 h (single oral dose 0.15 mg) was 0.161 ng/mL, the concentration at 0.5 h (single oral dose 0.6 mg) was 6.15 ng/mL and the concentration at 1 h (single oral dose 0.6 mg) was 6.25 ng/mL. It also gave a concentration at 1.5 h (single oral dose 0.6 mg) of 5.21 ng/mL, a concentration at 2 h (single oral dose 0.6 mg) of 4.84 ng/mL and a concentration at 3 h (single oral dose 0.6 mg) of 3.96 ng/mL. For the same compound, the concentration at 4 h (single oral dose 0.6 mg) was 3.6 ng/mL, the concentration at 5 h (single oral dose 0.6 mg) was 3.02 ng/mL and the concentration at 6 h (single oral dose 0.6 mg) was 2.35 ng/mL. It also gave a concentration at 8 h (single oral dose 0.6 mg) of 2.1 ng/mL, a concentration at 12 h (single oral dose 0.6 mg) of 1.09 ng/mL and a concentration at 24 h (single oral dose 0.6 mg) of 0.307 ng/mL. The concentration at 0.5 h (single oral dose 2 mg) was 16.2 ng/mL, the concentration at 1 h (single oral dose 2 mg) was 21.8 ng/mL and the concentration at 1.5 h (single oral dose 2 mg) was 19.5 ng/mL. For the same compound, the concentration at 2 h (single oral dose 2 mg) was 18.6 ng/mL, the concentration at 3 h (single oral dose 2 mg) was 15.3 ng/mL and the concentration at 4 h (single oral dose 2 mg) was 12.6 ng/mL. It also gave a concentration at 5 h (single oral dose 2 mg) of 10.5 ng/mL, a concentration at 6 h (single oral dose 2 mg) of 8.75 ng/mL and a concentration at 8 h (single oral dose 2 mg) of 7.09 ng/mL. It also gave a concentration at 12 h (single oral dose 2 mg) of 4.24 ng/mL, a concentration at 24 h (single oral dose 2 mg) of 1.34 ng/mL and a concentration at 0.5 h (single oral dose 5 mg) of 14.6 ng/mL. For the same compound, the concentration at 1 h (single oral dose 5 mg) was 58.9 ng/mL, the concentration at 1.5 h (single oral dose 5 mg) was 55.3 ng/mL and the concentration at 2 h (single oral dose 5 mg) was 50.3 ng/mL. It also gave a concentration at 3 h (single oral dose 5 mg) of 43.1 ng/mL, a concentration at 4 h (single oral dose 5 mg) of 36.5 ng/mL and a concentration at 5 h (single oral dose 5 mg) of 29.5 ng/mL. It also gave a concentration at 6 h (single oral dose 5 mg) of 24.8 ng/mL, a concentration at 8 h (single oral dose 5 mg) of 18.4 ng/mL and a concentration at 12 h (single oral dose 5 mg) of 9.74 ng/mL. For the same compound, the concentration at 24 h (single oral dose 5 mg) was 2.76 ng/mL, the concentration at 48 h (single oral dose 5 mg) was 0.634 ng/mL and the concentration at 0.5 h (single oral dose 10 mg) was 28.8 ng/mL. The concentration at 1 h (single oral dose 10 mg) was 122 ng/mL, the concentration at 1.5 h (single oral dose 10 mg) was 127 ng/mL and the concentration at 2 h (single oral dose 10 mg) was 125 ng/mL. For the same compound, the concentration at 3 h (single oral dose 10 mg) was 106 ng/mL, the concentration at 4 h (single oral dose 10 mg) was 100 ng/mL and the concentration at 5 h (single oral dose 10 mg) was 81.7 ng/mL. It also gave a concentration at 6 h (single oral dose 10 mg) of 72.3 ng/mL, a concentration at 8 h (single oral dose 10 mg) of 55.1 ng/mL and a concentration at 12 h (single oral dose 10 mg) of 32.7 ng/mL. The concentration at 24 h (single oral dose 10 mg) was 11 ng/mL, the concentration at 48 h (single oral dose 10 mg) was 2.28 ng/mL and the concentration at 0.5 h (single oral dose 16 mg) was 59.7 ng/mL. For the same compound, the concentration at 1 h (single oral dose 16 mg) was 150 ng/mL, the concentration at 1.5 h (single oral dose 16 mg) was 183 ng/mL and the concentration at 2 h (single oral dose 16 mg) was 187 ng/mL. The concentration at 3 h (single oral dose 16 mg) was 153 ng/mL, the concentration at 4 h (single oral dose 16 mg) was 127 ng/mL and the concentration at 5 h (single oral dose 16 mg) was 100 ng/mL. For the same compound, the concentration at 6 h (single oral dose 16 mg) was 88 ng/mL, the concentration at 8 h (single oral dose 16 mg) was 63 ng/mL and the concentration at 12 h (single oral dose 16 mg) was 32.2 ng/mL. The concentration at 24 h (single oral dose 16 mg) was 6.83 ng/mL, the concentration at 48 h (single oral dose 16 mg) was 0.828 ng/mL and the Tmax (oral, summary over the single ascending doses, read-out: median tmax) was about 1 h. The half-life (oral, summary over the single ascending doses, read-out: t1/2 (converted)) was about 6 h, the Cmax (single oral dose 0.15 mg, geometric mean (% CV)) was 0.318 ng/mL and the Tmax (single oral dose 0.15 mg, median, read-out: tmax) was 1.02 h. The Cmax [1] was 6.61 ng/mL, the CL renal (single oral dose 0.6 mg, geometric mean (% CV), read-out: CLr (renal clearance) (converted)) was 19.5 mL/min and the Vd/F [1] was 120 L. The half-life (single oral dose 0.6 mg, geometric mean, read-out: t1/2 (terminal half-life) (converted)) was 6.08 h, the Tmax (single oral dose 0.6 mg, median, read-out: tmax) was 1 h and the Cmax [2] was 20.9 ng/mL. For the same compound, the CL renal (single oral dose 2 mg, geometric mean (% CV), read-out: CLr (renal clearance) (converted)) was 20.8 mL/min, the Vd/F [2] was 119 L and the half-life (single oral dose 2 mg, geometric mean, read-out: t1/2 (terminal half-life) (converted)) was 5.48 h. For the same compound, the Tmax (single oral dose 2 mg, median, read-out: tmax) was 1.25 h, the Cmax [3] was 59.1 ng/mL and the CL renal (single oral dose 5 mg, geometric mean (% CV), read-out: CLr (renal clearance) (converted)) was 19.7 mL/min. For the same compound, the Vd/F [3] was 114 L, the half-life (single oral dose 5 mg, geometric mean, read-out: t1/2 (terminal half-life) (converted)) was 6.23 h and the Tmax (single oral dose 5 mg, median, read-out: tmax) was 1.02 h. It also gave a Cmax [4] of 134 ng/mL, a CL renal (single oral dose 10 mg, geometric mean (% CV), read-out: CLr (renal clearance) (converted)) of 20.3 mL/min and a Vd/F [4] of 104 L. The half-life (single oral dose 10 mg, geometric mean, read-out: t1/2 (terminal half-life) (converted)) was 8.82 h, the Tmax (single oral dose 10 mg, median, read-out: tmax) was 1.5 h and the Cmax [5] was 199 ng/mL. It also gave a CL renal (single oral dose 16 mg, geometric mean (% CV), N = 3, read-out: CLr (renal clearance) (converted)) of 16 mL/min, a Vd/F [5] of 102 L and a half-life (single oral dose 16 mg, geometric mean, read-out: t1/2 (terminal half-life) (converted)) of 5.92 h. For the same compound, the Tmax (single oral dose 16 mg, median, read-out: tmax) was 1.98 h, the “Ae0-24 (amount excreted in urine up to 24 hours postdose)” value (single oral dose 0.15 mg, geometric mean, N=5) was 0.003 mg and the “AUC(0-∞)” value [1] was 44.0 (33) ngxh/mL. The “Ae0-24 (amount excreted in urine up to 24 hours postdose)” value [1] was 0.048 (53%) mg, the “CL/F (apparent clearance calculated after oral administration)” value [1] was 13.6 (33) L/h and the “AUC(0-∞)” value [2] was 133 (88) ngxh/mL. The “Ae0-24 (amount excreted in urine up to 24 hours postdose)” value [2] was 0.155 (57%) mg, the “CL/F (apparent clearance calculated after oral administration)” value [2] was 15.1 (88) L/h and the “AUC(0-∞)” value [3] was 396 (39) ngxh/mL. The “Ae0-24 (amount excreted in urine up to 24 hours postdose)” value [3] was 0.436 (57%) mg, the “CL/F (apparent clearance calculated after oral administration)” value [3] was 12.6 (39) L/h and the “AUC(0-∞)” value [4] was 1220 (28) ngxh/mL. For the same compound, the “Ae0-24 (amount excreted in urine up to 24 hours postdose)” value [4] was 1.3 (30%) mg, the “CL/F (apparent clearance calculated after oral administration)” value [4] was 8.20 (28) L/h and the “AUC(0-∞)” value [5] was 1340 (19) ngxh/mL. The “Ae0-24 (amount excreted in urine up to 24 hours postdose)” value [5] was 1.14 (36%) mg and the “CL/F (apparent clearance calculated after oral administration)” value [5] was 11.9 (19) L/h.
